{"source": "ChEMBL document CHEMBL1201862", "about": "“PubChem BioAssay data set” (2004)", "assay_in_all_cases": "growth of human tumour cells (NCI), 48 h", "key": {"[1]": {"tested_on": "786-0"}, "[2]": {"tested_on": "A498"}, "[3]": {"tested_on": "A549"}, "[4]": {"tested_on": "ACHN"}, "[5]": {"tested_on": "BT-549"}, "[6]": {"tested_on": "CAKI-1"}, "[7]": {"tested_on": "CCRF-CEM"}, "[8]": {"tested_on": "COLO 205"}, "[9]": {"tested_on": "DU-145"}, "[10]": {"tested_on": "EKVX"}, "[11]": {"tested_on": "HCC 2998"}, "[12]": {"tested_on": "HCT-116"}, "[13]": {"tested_on": "HCT-15"}, "[14]": {"tested_on": "HL-60"}, "[15]": {"tested_on": "HOP-62"}, "[16]": {"tested_on": "HT-29"}, "[17]": {"tested_on": "IGROV-1"}, "[18]": {"tested_on": "K562"}, "[19]": {"tested_on": "KM12"}, "[20]": {"tested_on": "LOX IMVI"}, "[21]": {"tested_on": "MCF7"}, "[22]": {"tested_on": "MDA-MB-231"}, "[23]": {"tested_on": "MDA-MB-435"}, "[24]": {"tested_on": "MDA-N"}, "[25]": {"tested_on": "MOLT-4"}, "[26]": {"tested_on": "Malme-3M"}, "[27]": {"tested_on": "NCI-H226"}, "[28]": {"tested_on": "NCI-H23"}, "[29]": {"tested_on": "NCI-H460"}, "[30]": {"tested_on": "NCI/ADR-RES"}, "[31]": {"tested_on": "OVCAR-3"}, "[32]": {"tested_on": "OVCAR-4"}, "[33]": {"tested_on": "OVCAR-5"}, "[34]": {"tested_on": "OVCAR-8"}, "[35]": {"tested_on": "RPMI-8226"}, "[36]": {"tested_on": "RXF 393"}, "[37]": {"tested_on": "SF-268"}, "[38]": {"tested_on": "SF-295"}, "[39]": {"tested_on": "SF-539"}, "[40]": {"tested_on": "SK-MEL-28"}, "[41]": {"tested_on": "SK-MEL-5"}, "[42]": {"tested_on": "SK-OV-3"}, "[43]": {"tested_on": "SN12C"}, "[44]": {"tested_on": "SNB-19"}, "[45]": {"tested_on": "SR"}, "[46]": {"tested_on": "SW-620"}, "[47]": {"tested_on": "T47D"}, "[48]": {"tested_on": "TK-10"}, "[49]": {"tested_on": "U-251"}, "[50]": {"tested_on": "UACC-257"}, "[51]": {"tested_on": "UACC-62"}, "[52]": {"tested_on": "UO-31"}, "[53]": {"tested_on": "HOP-92"}, "[54]": {"tested_on": "M14"}, "[55]": {"tested_on": "SK-MEL-2"}, "[56]": {"tested_on": "SNB-75"}}, "note": "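The compound was tested at five concentrations on cells cultured in 96-well plates, with a 48-hour exposure period. At the GI50, growth is halved.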 The source made the active and inactive calls. Rule as the data show it: active = GI50 up to about 1.1 µM and inactive = higher."}
{"smiles": "CCOC(OCC)N1C(=O)C2(C(OCC)OCC)CC3C(OC(=O)N3N)c3cccc1c32", "note": "(stereo not given)", "values": [{"measurement": "GI50", "setting": "[1]", "result": "> 100 µM (inactive)"}, {"measurement": "GI50", "setting": "[2]", "result": "61.2 µM (inactive)"}, {"measurement": "GI50", "setting": "[3]", "result": "> 100 µM (inactive)"}, {"measurement": "GI50", "setting": "[4]", "result": "> 100 µM (inactive)"}, {"measurement": "GI50", "setting": "[5]", "result": "> 100 µM (inactive)"}, {"measurement": "GI50", "setting": "[6]", "result": "> 100 µM (inactive)"}, {"measurement": "GI50", "setting": "[7]", "result": "54.2 µM (inactive)"}, {"measurement": "GI50", "setting": "[8]", "result": "> 100 µM (inactive)"}, {"measurement": "GI50", "setting": "[9]", "result": "> 100 µM (inactive)"}, {"measurement": "GI50", "setting": "[10]", "result": "> 100 µM (inactive)"}, {"measurement": "GI50", "setting": "[11]", "result": "> 100 µM (inactive)"}, {"measurement": "GI50", "setting": "[12]", "result": "> 100 µM (inactive)"}, {"measurement": "GI50", "setting": "[13]", "result": "> 100", "unit": "µM"}, {"measurement": "GI50", "setting": "[14]", "result": "> 100 µM (inactive)"}, {"measurement": "GI50", "setting": "[15]", "result": "> 100 µM (inactive)"}, {"measurement": "GI50", "setting": "[16]", "result": "> 100 µM (inactive)"}, {"measurement": "GI50", "setting": "[17]", "result": "> 100 µM (inactive)"}, {"measurement": "GI50", "setting": "[18]", "result": "> 10 µM (inactive)"}, {"measurement": "GI50", "setting": "[19]", "result": "> 100 µM (inactive)"}, {"measurement": "GI50", "setting": "[20]", "result": "> 100 µM (inactive)"}, {"measurement": "GI50", "setting": "[21]", "result": "> 100 µM (inactive)"}, {"measurement": "GI50", "setting": "[22]", "result": "> 100 µM (inactive)"}, {"measurement": "GI50", "setting": "[23]", "result": "> 100 µM (inactive)"}, {"measurement": "GI50", "setting": "[24]", "result": "> 100 µM (inactive)"}, {"measurement": "GI50", "setting": "[25]", "result": "79.4 µM (inactive)"}, {"measurement": "GI50", "setting": "[26]", "result": "> 100 µM (inactive)"}, {"measurement": "GI50", "setting": "[27]", "result": "> 100 µM (inactive)"}, {"measurement": "GI50", "setting": "[28]", "result": "> 100 µM (inactive)"}, {"measurement": "GI50", "setting": "[29]", "result": "> 100 µM (inactive)"}, {"measurement": "GI50", "setting": "[30]", "result": "> 100 µM (inactive)"}, {"measurement": "GI50", "setting": "[31]", "result": "> 100 µM (inactive)"}, {"measurement": "GI50", "setting": "[32]", "result": "> 100 µM (inactive)"}, {"measurement": "GI50", "setting": "[33]", "result": "> 100 µM (inactive)"}, {"measurement": "GI50", "setting": "[34]", "result": "> 100 µM (inactive)"}, {"measurement": "GI50", "setting": "[35]", "result": "> 100 µM (inactive)"}, {"measurement": "GI50", "setting": "[36]", "result": "> 100 µM (inactive)"}, {"measurement": "GI50", "setting": "[37]", "result": "> 100 µM (inactive)"}, {"measurement": "GI50", "setting": "[38]", "result": "> 100 µM (inactive)"}, {"measurement": "GI50", "setting": "[39]", "result": "> 100 µM (inactive)"}, {"measurement": "GI50", "setting": "[40]", "result": "> 100 µM (inactive)"}, {"measurement": "GI50", "setting": "[41]", "result": "> 100 µM (inactive)"}, {"measurement": "GI50", "setting": "[42]", "result": "> 100 µM (inactive)"}, {"measurement": "GI50", "setting": "[43]", "result": "> 100 µM (inactive)"}, {"measurement": "GI50", "setting": "[44]", "result": "> 100 µM (inactive)"}, {"measurement": "GI50", "setting": "[45]", "result": "> 100 µM (inactive)"}, {"measurement": "GI50", "setting": "[46]", "result": "> 100 µM (inactive)"}, {"measurement": "GI50", "setting": "[47]", "result": "> 100 µM (inactive)"}, {"measurement": "GI50", "setting": "[48]", "result": "> 100 µM (inactive)"}, {"measurement": "GI50", "setting": "[49]", "result": "> 100 µM (inactive)"}, {"measurement": "GI50", "setting": "[50]", "result": "> 100 µM (inactive)"}, {"measurement": "GI50", "setting": "[51]", "result": "> 100 µM (inactive)"}, {"measurement": "GI50", "setting": "[52]", "result": "> 100 µM (inactive)"}]}
{"smiles": "O=S(=O)(O)c1ccc2c(/N=N/c3ccccc3)c(O)ccc2c1", "values": [{"measurement": "GI50", "setting": "[1]", "result": "> 100 µM (inactive)"}, {"measurement": "GI50", "setting": "[2]", "result": "> 100 µM (inactive)"}, {"measurement": "GI50", "setting": "[5]", "result": "> 100 µM (inactive)"}, {"measurement": "GI50", "setting": "[6]", "result": "> 100 µM (inactive)"}, {"measurement": "GI50", "setting": "[7]", "result": "> 100 µM (inactive)"}, {"measurement": "GI50", "setting": "[8]", "result": "> 100 µM (inactive)"}, {"measurement": "GI50", "setting": "[9]", "result": "> 100 µM (inactive)"}, {"measurement": "GI50", "setting": "[10]", "result": "> 100 µM (inactive)"}, {"measurement": "GI50", "setting": "[11]", "result": "> 100 µM (inactive)"}, {"measurement": "GI50", "setting": "[12]", "result": "> 100 µM (inactive)"}, {"measurement": "GI50", "setting": "[13]", "result": "> 100", "unit": "µM"}, {"measurement": "GI50", "setting": "[14]", "result": "> 100 µM (inactive)"}, {"measurement": "GI50", "setting": "[53]", "result": "> 100 µM (inactive)"}, {"measurement": "GI50", "setting": "[17]", "result": "> 100 µM (inactive)"}, {"measurement": "GI50", "setting": "[19]", "result": "> 100 µM (inactive)"}, {"measurement": "GI50", "setting": "[54]", "result": "> 100 µM (inactive)"}, {"measurement": "GI50", "setting": "[21]", "result": "> 100 µM (inactive)"}, {"measurement": "GI50", "setting": "[23]", "result": "> 100 µM (inactive)"}, {"measurement": "GI50", "setting": "[25]", "result": "> 100 µM (inactive)"}, {"measurement": "GI50", "setting": "[29]", "result": "> 100 µM (inactive)"}, {"measurement": "GI50", "setting": "[31]", "result": "> 100 µM (inactive)"}, {"measurement": "GI50", "setting": "[33]", "result": "> 100 µM (inactive)"}, {"measurement": "GI50", "setting": "[34]", "result": "> 100 µM (inactive)"}, {"measurement": "GI50", "setting": "[36]", "result": "> 100 µM (inactive)"}, {"measurement": "GI50", "setting": "[39]", "result": "> 100 µM (inactive)"}, {"measurement": "GI50", "setting": "[40]", "result": "> 100 µM (inactive)"}, {"measurement": "GI50", "setting": "[55]", "result": "> 100 µM (inactive)"}, {"measurement": "GI50", "setting": "[41]", "result": "> 100 µM (inactive)"}, {"measurement": "GI50", "setting": "[42]", "result": "> 100 µM (inactive)"}, {"measurement": "GI50", "setting": "[43]", "result": "> 100 µM (inactive)"}, {"measurement": "GI50", "setting": "[44]", "result": "> 100 µM (inactive)"}, {"measurement": "GI50", "setting": "[56]", "result": "> 100 µM (inactive)"}, {"measurement": "GI50", "setting": "[45]", "result": "> 100 µM (inactive)"}, {"measurement": "GI50", "setting": "[46]", "result": "> 100 µM (inactive)"}, {"measurement": "GI50", "setting": "[47]", "result": "> 100 µM (inactive)"}, {"measurement": "GI50", "setting": "[49]", "result": "> 100 µM (inactive)"}, {"measurement": "GI50", "setting": "[50]", "result": "> 100 µM (inactive)"}, {"measurement": "GI50", "setting": "[52]", "result": "> 100 µM (inactive)"}]}
